Results on 51 compounds are retold here after the C3SDB collision cross section collection.

For series [1] the following is noted: instrument: DT, stepped-field.
For series [2] the following is noted: instrument: DT, single field, calibrated with Agilent tune mix (Agilent).

The structures appear in SMILES notation.

Consider `Nc1c(O)cccc1C(=O)CC(N)C(=O)O` (racemic) [3-Hydroxy-DL-kynurenine], for which the “collision cross section (N2)” value is 157.67 Å² in series [1] ([M+H]+) and 160.83 Å² in series [1] ([M+Na]+).
In the case of `OC[C@H]1O[C@@](CO)(OC[C@@]2(O[C@H]3O[C@H](CO)[C@@H](O)[C@H](O)[C@H]3O)O[C@H](CO)[C@@H](O)[C@@H]2O)[C@@H](O)[C@@H]1O` [1-Kestose], the “collision cross section (N2)” value in series [1] ([M+Na]+) was 205.43 Å².
As for `Nc1nc(=O)c2ncn([C@H]3C[C@H](O)[C@@H](COP(=O)(O)O)O3)c2[nH]1` [2'-Deoxyguanosine 5'-Monophosphate], the “collision cross section (N2)” value is 178.96 Å² in series [1] ([M+H]+) and 173.87 Å² in series [1] ([M+Na]+).
As to `NCCP(=O)(O)O` [2-Aminoethylphosphonate], in series [1] ([M+H]+), the “collision cross section (N2)” value is 132.21 Å².
On the same count and under the same terms, the figure for `Cc1ccc2cc3ccccc3cc2c1` [2-Methylanthracene] is 138.61 Å².
On the same count and under the same terms, the same measure for `Cc1ccc2ccccc2c1` [2-methylnaphthalene]: 124.57 Å²; for `Cn1cncc1C[C@H](N)C(=O)O` [3-Methyl-L-histidine]: 136.57 Å²; for `Cc1ncsc1CCO` [4-Methyl-5-Thiazolethanol]: 145.34 Å².
On to `CCCCC/C=C/C/C=C\C[C@@H]1O[C@@H]1C/C=C\CCCC(=O)O` [8(9)-EET], for which, in series [1] ([M+Na]+), the “collision cross section (N2)” value was 186.83 Å².
Same read-out and setting: the same measure for `CCCCC/C=C\C/C=C\C=C\[C@@H](O)C/C=C\CCCC(=O)O` [8S-HETE]: 187.17 Å².
As for `CCCCC/C=C\C=C\C(=O)CCCCCCCC(=O)O` [9-OxoODE], the “collision cross section (N2)” value in series [1] ([M+H]+) was determined as 184.2 Å²; in series [1] ([M+Na]+), 199.5 Å².
Consider `CCCCC/C=C\C[C@H]1O[C@H]1C/C=C\C/C=C\CCCC(=O)O` [11(12)-EET], for which the “collision cross section (N2)” value in series [1] ([M+Na]+) is 187.87 Å².
The same measure, in the same setting: the same measure for `CCCCC/C=C\C[C@H](O)/C=C/C=C\C/C=C\CCCC(=O)O` [12S-HETE]: 193.33 Å².
Turning to `COc1ccc(-c2cc(=O)c3c(O)cc(O)cc3o2)cc1` [Acacetin], the “collision cross section (N2)” value in series [1] ([M+H]+) was determined as 167.06 Å².
The same measure, in the same setting: the same measure for `O=C1C(=O)c2cccc3cccc1c23` [Acenaphthenequinone]: 145.51 Å²; for `C1=Cc2cccc3cccc1c23` [Acenaphthylene]: 125.71 Å².
As for `CCCCC/C=C\C/C=C\C/C=C\C/C=C\CCCCCC(=O)O` [Adrenic Acid], the “collision cross section (N2)” value in series [1] ([M+H]+) came to 189.41 Å²; in series [1] ([M+Na]+), 192.83 Å².
In the case of `CC1(C)S[C@@H]2[C@H](NC(=O)[C@H](N)c3ccccc3)C(=O)N2[C@H]1C(=O)O` [Ampicillin], the entries for the “collision cross section (N2)” value in series [1] ([M+H]+) and in series [1] ([M+Na]+) were 193.17 Å² and 187.93 Å², respectively.
In the case of `c1cncc(C2CCCCN2)c1` (stereo not given) [Anabasine], the “collision cross section (N2)” value in series [1] ([M+H]+) was determined as 140.18 Å².
For the compound `NC(=NCCC[C@H](N)C(=O)O)N[C@@H](CC(=O)O)C(=O)O` [Argininosuccinic Acid], the “collision cross section (N2)” value stood at 167.39 Å² in series [1] ([M+H]+) and 172.22 Å² in series [1] ([M+Na]+).
In the case of `CCNc1nc(Cl)nc(NC(C)C)n1` [Atrazine], the “collision cross section (N2)” value in series [1] ([M+H]+) is on record as 150.74 Å².
On the same count and under the same terms, the same measure for `C1=Cc2c3ccc4ccccc4c3cc3cccc1c23` [Benz(j)aceanthrylene]: 155.08 Å²; for `c1ccc2c(c1)cc1ccc3cccc4ccc2c1c34` [Benzo(a)Pyrene]: 152.05 Å².
In the case of `CCCCC/C=C\C/C=C\C/C=C\CCCCCCC(=O)O` [Bishomo-gamma-linolenic Acid], the “collision cross section (N2)” value in series [1] ([M+Na]+) worked out at 183.38 Å².
For the compound `CCCCCCCC/C=C\CCCCCCCCCC(=O)O[C@@H](CO)COC(=O)CCCCCCC/C=C\CCCCCCCC` [DG(38:2)], the “collision cross section (N2)” value in series [2] ([M+NH4]+) is recorded as 271.6 Å².
With `CCCCC/C=C\C/C=C\CCCCCCCCCC(=O)O[C@@H](CO)COC(=O)CCCCCCCCCCCCCCCCCCC` [DG(40:2)], the “collision cross section (N2)” value in series [2] ([M+NH4]+) was determined as 277.7 Å².
For the compound `CCCCC/C=C\C/C=C\CCCCCCCC(=O)OC[C@@H](O)COP(=O)([O-])OCC[N+](C)(C)C` [LPC(18:2)], the entries for the “collision cross section (N2)” value in series [2] ([M+HCOO]-), in series [2] ([M+H]+) and in series [2] ([M+Na]+) were 235.2 Å², 226.8 Å² and 231.9 Å², respectively.
As to `CCCCCCCCCCCCCCCCC(=O)OC[C@@H](O)COP(=O)(O)OCCN` [LPE(17:0)], the figures for the “collision cross section (N2)” value in series [2] ([M+H]+) and in series [2] ([M-H]-) were 217.1 Å² and 210.1 Å², respectively.
With `CCCCC/C=C\C/C=C\CCCCCCCCCC(=O)OC[C@@H](O)COP(=O)(O)OCCN` [LPE(20:2)], in series [2] ([M-H]-), the “collision cross section (N2)” value was found to be 216.4 Å².
Still for that read-out and setting: the figure for `CCCCCCCCCCCCCCCCC(=O)OC[C@@H](O)COP(=O)(O)O[C@H]1C(O)C(O)C(O)[C@@H](O)C1O` (stereo not given in full) [LPI(17:0)] is 232.6 Å².
The same measure, in the same setting: the figure for `CCCCCCCCCCCCCCCC(=O)OC[C@@H](O)COP(=O)(O)OC[C@H](N)C(=O)O` [LPS(16:0)] is 216.4 Å².
As for `CCCCCCCC/C=C\CCCCCCCCCC(=O)OC[C@@H](O)COP(=O)(O)OC[C@H](N)C(=O)O` [LPS(20:1)], the “collision cross section (N2)” value in series [2] ([M+H]+) is on record as 231.8 Å².
In the case of `CCCCC/C=C\C/C=C\C/C=C\CCCCCCC(=O)OC[C@@H](O)COP(=O)(O)OC[C@H](N)C(=O)O` [LPS(20:3)], the “collision cross section (N2)” value in series [2] ([M-H]-) was 221.5 Å².
On to `CCCCC/C=C\C/C=C\C/C=C\C/C=C\CCCCCC(=O)O[C@H](COC(=O)CCCCCCCCCCCCCC)COP(=O)([O-])OCC[N+](C)(C)C` [PC(37:4)], for which the “collision cross section (N2)” value in series [2] ([M+H]+) worked out at 290.4 Å².
On the same count and under the same terms, the figure for `CCCCCCCCCCCCCCCC/C=C\OC[C@H](COP(=O)([O-])OCC[N+](C)(C)C)OC(=O)CCCCCCCCCCCCCCC` [PC(p34:0)] is 288.3 Å².
On the same count and under the same terms, the same measure for `CCCCC/C=C\C/C=C\C/C=C\C/C=C\CCCCCC(=O)O[C@H](CO/C=C\CCCCCCCCCCCCCCCC)COP(=O)([O-])OCC[N+](C)(C)C` [PC(p40:4)]: 300.9 Å².
Still for that read-out and setting: the same measure for `CCCCCCCCCCCCCC/C=C\OC[C@H](COP(=O)(O)OCCN)OC(=O)CCCCCCCCCCCCCCCCC` [PE(p34:0)]: 274.6 Å².
On to `CCCCCCCCCCCCCCCC/C=C\OC[C@H](COP(=O)(O)OCCN)OC(=O)CCCCCCCCCCCCCCCCC` [PE(p36:0)], for which the results for the “collision cross section (N2)” value in series [2] ([M+H]+) and in series [2] ([M-H]-) were 281.6 Å² and 268.4 Å², respectively.
For the compound `CCCCCCCC/C=C\CCCCCCCCCC(=O)O[C@H](COC(=O)CCCCCCCCCCCCCC)COP(=O)(O)O[C@H]1C(O)C(O)C(O)[C@@H](O)C1O` (stereo not given in full) [PI(35:1)], the “collision cross section (N2)” value in series [2] ([M+NH4]+) turned out to be 298.1 Å²; in series [2] ([M-H]-) it was 286.9 Å².
Taken in the same sequence, the figures for `CCCCC/C=C\C/C=C\CCCCCCCCCCCC(=O)O[C@H](COC(=O)CCCCCCCCCCCC)COP(=O)(O)O[C@H]1C(O)C(O)C(O)[C@@H](O)C1O` (stereo not given in full) [PI(35:2)] were 295.6 Å² and 285.3 Å².
As to `CCCCC/C=C\C/C=C\CCCCCCCCCCCC(=O)O[C@H](COC(=O)CCCCCCC/C=C\CCCCC)COP(=O)(O)O[C@H]1C(O)C(O)C(O)[C@@H](O)C1O` (stereo not given in full) [PI(37:3)], the “collision cross section (N2)” value in series [2] ([M+NH4]+) came to 301.4 Å²; in series [2] ([M+Na]+) it was 298.9 Å²; in series [2] ([M-H]-), 290.1 Å².
Turning to `CC/C=C\C/C=C\C/C=C\C/C=C\CCCCC(=O)OC[C@H](COP(=O)(O)O[C@H]1C(O)C(O)C(O)[C@@H](O)C1O)OC(=O)CCCCCCCCCCCCCCCCCC` (stereo not given in full) [PI(37:4)], the “collision cross section (N2)” value in series [2] ([M+H]+) was determined as 298.9 Å²; in series [2] ([M+NH4]+) it was 300.2 Å²; in series [2] ([M+Na]+), 297.6 Å².
Consider `CCCCCC/C=C\CCCCCCCC(=O)OC[C@H](COP(=O)(O)O[C@H]1C(O)C(O)C(O)[C@@H](O)C1O)OC(=O)CCCCCCCCCCCCCCCCCCCCC` (stereo not given in full) [PI(38:1)], for which the “collision cross section (N2)” value in series [2] ([M-H]-) was 296.1 Å².
For the compound `CCCCCCCC/C=C\CCCCCCCCCC(=O)O[C@H](COC(=O)CCCCCCCCCCCCC)COP(=O)(O)OC[C@H](N)C(=O)O` [PS(34:1)], the “collision cross section (N2)” value in series [2] ([M+H]+) is given as 280 Å²; in series [2] ([M-H]-), 273.1 Å².
Regarding `CCCCCCCCCCCCC=CC[C@@H](O)[C@H](COP(=O)([O-])OCC[N+](C)(C)C)NC(=O)CCCCCCCCCCCCCC` [SM(33:1)], the “collision cross section (N2)” value in series [2] ([M+H]+) is 279.2 Å².
Consider `CCCCCCCCCCCCCCCC(=O)N[C@@H](COP(=O)([O-])OCC[N+](C)(C)C)[C@H](O)CCCCCCCCCCCCCCC` [SM(34:0)], for which the “collision cross section (N2)” value amounted to 282.3 Å² in series [2] ([M+HCOO]-), 285 Å² in series [2] ([M+H]+) and 284.8 Å² in series [2] ([M+Na]+).
Consider `CCCCCCCCCCCCC=CCC(=O)N[C@@H](COP(=O)([O-])OCC[N+](C)(C)C)[C@H](O)CC=CCCCCCCCCCCCC` [SM(34:2)], for which the “collision cross section (N2)” value in series [2] ([M+H]+) is reported as 281.4 Å².
With `CCCCC/C=C\C/C=C\C/C=C\C/C=C\CCCCCC(=O)OC[C@@H](COC(=O)CCCCCCCCCCCCCCC)OC(=O)CCCCCCC/C=C\CCCCCCC` [TG(55:5)], the “collision cross section (N2)” value in series [2] ([M+NH4]+) is 324.6 Å².
The same measure, in the same setting: the same measure for `CCCCC/C=C\C/C=C\C/C=C\CCCCCCC(=O)O[C@H](COC(=O)CCCC/C=C\C/C=C\C/C=C\CCCCC)COC(=O)CCCCCCCCC/C=C\CCCCCCCCCC` [TG(60:7)]: 339 Å²; for `CC/C=C\C/C=C\C/C=C\C/C=C\C/C=C\CCCC(=O)O[C@H](COC(=O)CCCCCCC/C=C\C/C=C\C/C=C\CC)COC(=O)CCCCCCCCC/C=C\CCCCCCCCCC` [TG(60:9)]: 336 Å².
Same read-out and setting: the figure for `CC/C=C\C/C=C\C/C=C\C/C=C\C/C=C\C/C=C\CCC(=O)OC[C@@H](COC(=O)CCCCCCC/C=C\C/C=C\C/C=C\CC)OC(=O)CCCCCCCC/C=C\C/C=C\C/C=C\CCCCC` [TG(62:12)] is 337.5 Å².
